From publication PMC9606171, “Synthetic PPAR Agonist DTMB Alleviates Alzheimer’s Disease Pathology by Inhibition of Chronic Microglial Inflammation in 5xFAD Mice” (Neurotherapeutics, 2022)

Assays:
primary microglia = test: Western blot of NF-κB, NLRP3 and ASC in primary microglia; assay type: cell-based, mice; conditions: DTMB 25 µM, 24 h
Description: Primary microglia culture was conducted as described in a previous study. Mice at postnatal day 3 mice were used for the preparation of primary microglia. Newborn mice pups were anesthetized in ice and then sacrificed. Isolated cortex and hippocampus were collected after removing the meninges. Brain tissues were dissociated by incubating in HBSS (Gibco, Gaithersburg, MD, USA) with trypsin (2.5%) for 15 min. Cell homogenates were then incubated in M-CSF (20 ng/mL, R&D Systems) supplemented with DMEM-F12 medium with 10% fetal bovine serum, 10% horse serum, 1% GlutaMAX (Gibco, MD, USA), and 1% penicillin/streptomycin (Welgene, Korea). After 10 days, microglia were purified through shaking at 260 rpm for 2 h.
Cells were lysed with lysis buffer containing 50 mM Tris (pH 7.4), 140 mM NaCl, 5 mM EDTA, and a protease inhibitor tablet, followed by sonication. Lysate protein concentrations were determined using Bradford reagents (AMERSCO, MA, USA). Proteins were resolved by sodium dodecyl sulfate (SDS) polyacrylamide gel electrophoresis, transferred to nitrocellulose membranes (Pall Corporation, New York, NY, USA), and incubated with blocking buffer (5% nonfat dry milk in TBS and 0.1% Tween 20) for 30 min. Western blot analyses were performed using primary antibodies against NF-κB, NLRP3, ASC, nicastrin, pen2 (Cell Signaling Technology, Danvers, MA, USA), Aph1 (Invitrogen), amyloid C-terminal fragment (Santa Cruz Biotechnology, Dallas, TX, USA), and GAPDH (Bethyl Laboratories, Mongomery, TX, USA). Secondary antibodies of rabbit (Promega), rat, and goat (Bethyl Laboratories) were used, and detection was performed with SUPEX ECL reagent (Neuronex, Korea) and an ImageQuant LAS-4000 (GE Healthcare, MA, USA), according to the manufacturer’s instructions. The integrated blot density was quantified through ImageJ.

5xFAD mice = test: Soluble/insoluble Aβ extraction, western blot and filter-trap assay; assay type: in vivo; conditions: 10 mg/kg orally, 3 months
Description: DTMB was synthesized from Daejung Chemicals (Korea) and was dissolved in dimethyl sulfoxide (Sigma Aldrich, St. Louis, MO, USA) for cell-based experiments. To evaluate the effects of DTMB on 5xFAD mice, DTMB (10 mg/kg) and vehicle (1% carboxymethylcellulose and 10% DMSO) were orally administrated to four groups (wild-type, wild-type + DTMB, 5xFAD, and 5xFAD + DTMB) with a 6 day per week for 3 months.
To investigate soluble and insoluble Aβ components, two extraction steps were performed. Left hemisphere samples were homogenized in cold Tris-buffered saline (TBS consisting of 50 mM Tris-pH 7.5 and 150 mM NaCl) with a protease inhibitor cocktail (Thermo Fisher Scientific, Waltham, MO, USA) at a concentration of 100 mg/mL. After centrifugation at 15,000 rpm for 1 h at 4 °C, the supernatant of the samples was used to conduct western blotting. Insoluble protein was extracted from the pellet by dissolving in 5 M guanidine buffer (5 M guanidine HCl and 150 mM NaCl-pH 7.5). Soluble and insoluble protein samples were stored at −80 °C.
The insoluble fraction of protein lysates in 5xFAD mice was diluted in 1% SDS-PBS and boiled at 95 °C for 5 min. The membrane was pre-equilibrated with 1 × TBS. A dot blotter apparatus (Bio-Rad Laboratories, Hercules, CA, USA) was used for sample application, and 6e10 antibody was used to detect Aβ contents from brain lysates of 5xFAD mice treated with DTMB. […]

Aβ aggregates in the insoluble fraction (5xFAD mice; 5xFAD mice brain lysates): decreased
SMILES: COc1ccc(-c2cc(=O)oc3c(C)c(OC(=O)[C@H](Cc4c[nH]c5ccccc45)NC(=O)OC(C)(C)C)ccc23)cc1 [DTMB]
protein level of ASC (primary microglia): not changed
protein level of NF-κB (primary microglia): decreased
protein level of NLRP3 (primary microglia): decreased
amyloid beta monomer (5xFAD mice; 5xFAD mice brain): not decreased
